{"source": "patent US9416181B2", "about": "“Compositions for cell culture and methods of using the same” (AbbVie Inc., priority 2013, dated 2016)", "type_in_all_cases": "cell-based, Chinese Hamster", "key": {"[1]": {"test_system": "Cell Line 1 (CHO) expressing Antibody 1", "experiment": "Aggregate content (SEC) of Antibody 1, Cell Line 1 shake flask fed-batch culture", "conditions": "shaker", "method": "A recombinant Chinese Hamster Ovary (CHO) cell line (Cell Line 1) expressing a humanized monoclonal antibody (Antibody 1) was evaluated in 2 different cultures vessels (shaker flasks and 3 L laboratory-scale bioreactors). The cell line was of CHO DUX-B11 origin based on a DHFR (dihydrofolate reductase) expression system and cultured in a chemically defined basal media, and fed periodically with a chemically-defined feed media (CDFM). The media utilized throughout all of the experiments were chemically-defined, and both animal-component free, and protein-free. Each of the respective media were supplemented as needed with selected bioflavonoids to evaluate for their potential impact on the resulting acidic species profile. In preparation of the cultures, the cell lines were serially expanded through separate seed train inoculums to generate enough cells for inoculation. Process conditions utilized during the cultures were slightly different depending on the culture scale, but similar within each scale to the respective non-bioflavonoid supplemented control conditions. All bioflavonoids utilized were purchased from Sigma-Aldrich (St. Louis, Mo.).\nProtein A purified antibody samples from Cell Line 1 were diluted when necessary to 0.5-5 mg/mL in 1×PBS, and measured on a TSKgel G3000SWXL column (Tosoh Bioscience, South San Francisco, Calif.) using an isocratic gradient on an HPLC system with detection at 280 nm. High molecular weight (HMW), monomer, and low molecular weight (LMW) species were assigned and subsequently quantitated based on the chromatographic profile.\nIn this Example, EGCG was added into the feed (cell culture medium) at the concentration range of 5 mg/L (low), 20 mg/L (mid) and 50 mg/L (high) in a shaker experiment to determine the impact of EGCG on product quality of a humanized monoclonal antibody (Antibody 1). Detailed cell culture conditions are as described in Table 1."}, "[2]": {"test_system": "recombinant CHO cell lines", "experiment": "Harvest titer / productivity summary across bioflavonoid supplemented cultures", "method": "(§1) Four different recombinant Chinese Hamster Ovary (CHO) cell lines expressing four different recombinant glycoproteins were evaluated in either shaker flask culture, or 3 L laboratory scale bioreactors. Cell Line 1 was genetically engineered to express Antibody 1, Cell Line 2 was genetically engineered to express Antibody 2, Cell Line 3 was genetically engineered to express dual variable domain immunoglobulin 1 (DVD1) and Cell Line 4 was genetically engineered to express dual variable domain immunoglobulin 2 (DVD2).\nProtein A Affinity Chromatography-Antibody titers were measured from crude cell culture harvests on a Poros ATM (Life Technologies, Carlsbad, Calif.) affinity column using an HPLC system operating with a low pH, step elution gradient with detection at 280 nm. Absolute concentrations were assigned with respect to reference standard calibration curves."}, "[3]": {"test_system": "Cell Line 2 (CHO) expressing Antibody 2", "experiment": "Cell culture performance, Cell Line 2 shake flask culture", "conditions": "shaker", "method": "as §1\nDVD1 and DVD2 were immunoglobulins with two variable domains as documented previously. See Wu et al. (2007). Antibody 1 and Antibody 2 were both IgG1 glycoproteins. All four cell lines were of CHO DUX-B11 origin based on a dhfr (dihydrofolate reductase) expression system and cultured in chemically defined basal medias (CDBM), and fed periodically with chemically-defined feed media (CDFM). All media utilized throughout all of the experiments were chemically-defined, free of animal-component, and protein-free. […]\nViable cell density (VCD) and cell viability values were measured through trypan blue exclusion via Cedex automated cell counters (Roche Applied Science, Indianapolis, Ind.), glucose and lactate values were measured with a ABL-805 (Radiometer Medical, Denmark) blood gas analyzer. […] Osmolality was measured as needed on a Multi-Osmette 2430 osmometer (Precision Systems, Natick, Mass.).\nProtein A Affinity Chromatography-Antibody titers were measured from crude cell culture harvests on a Poros ATM (Life Technologies, Carlsbad, Calif.) affinity column using an HPLC system operating with a low pH, step elution gradient with detection at 280 nm. […]\nTo further evaluate the impact of EGCG on acidic region variants, Antibody 2 and dual variable domain immunoglobulin 1 (DVD1) were examined. Antibody 2 was evaluated in a set of shaker and lab-scale bioreactor experiments with two feed amounts (100% and 50%) as unsupplemented control conditions. […]"}}}
{"compound": "O=C(O[C@@H]1Cc2c(O)cc(O)cc2O[C@@H]1c1cc(O)c(O)c(O)c1)c1cc(O)c(O)c(O)c1", "note": "[EGCG, epigallocatechin gallate]", "values": [{"measurement": "reduction of aggregation content, relative value", "setting": "[1]; 5 mg/L in feed", "result": 9, "unit": "%"}, {"measurement": "reduction of aggregation content, relative value", "setting": "[1]; 20 mg/L in feed", "result": 23, "unit": "%"}, {"measurement": "reduction of aggregation content, relative value", "setting": "[1]; 50 mg/L in feed", "result": 44, "unit": "%"}, {"measurement": "drop in harvest titer", "setting": "[2]; concentrations up to 0.1 g/L, supplemented cultures overall", "result": "at most 8%"}, {"measurement": "recombinant protein productivity", "setting": "[2]; supplementation up to 0.2 g/L", "result": "only nominally impacted"}, {"measurement": "impact on cell culture performance (cell growth, viability, titer)", "setting": "[3]; 0.05 and 0.1 g/L in feed", "result": "no negative impact on cell culture performance"}, {"measurement": "fold of the average titer of the unsupplemented control conditions", "setting": "[3]; 0.1 g/L in 100% feed", "result": 1.22, "unit": "fold"}, {"measurement": "fold of the average titer of the unsupplemented control conditions", "setting": "[3]; equivalent of 0.1 g/L in 50% feed", "result": 1.11, "unit": "fold"}]}
